Patent US10092493B2, “Composition of skin external application for anti-aging” (AMOREPACIFIC CORPORATION, priority 2005, dated 2018)

Molecular target: T1, PPAR-α (Peroxisome Proliferator Activated Receptor-alpha) (Homo sapiens, UniProt Q07869)
T1 construct: expressed in transfected cells; host or cells: CV-1 monkey kidney epithelial cells (ATCC CCL 70)
T1 sequence (Q07869 1-468): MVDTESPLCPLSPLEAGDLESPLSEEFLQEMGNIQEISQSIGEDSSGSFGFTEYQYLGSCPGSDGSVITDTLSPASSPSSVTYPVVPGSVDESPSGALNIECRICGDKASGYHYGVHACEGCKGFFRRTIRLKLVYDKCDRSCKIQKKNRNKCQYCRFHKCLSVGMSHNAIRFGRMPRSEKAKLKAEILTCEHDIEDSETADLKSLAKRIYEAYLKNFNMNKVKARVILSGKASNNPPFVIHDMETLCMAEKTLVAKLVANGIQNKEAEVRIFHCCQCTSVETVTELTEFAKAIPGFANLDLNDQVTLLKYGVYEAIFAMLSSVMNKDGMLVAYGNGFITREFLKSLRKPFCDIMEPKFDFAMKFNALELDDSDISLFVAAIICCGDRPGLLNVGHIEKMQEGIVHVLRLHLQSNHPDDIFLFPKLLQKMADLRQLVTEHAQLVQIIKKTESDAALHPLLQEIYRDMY
Assay: Activation of PPAR-α, luciferase reporter in CV-1 cells
Assay type: cell-based
Details: 0.1 μM, 24 hours; negative control and non-treated group = 1.0
Protocol: Monkey kidney epithelial cell line CV-1 (ATCC CCL 70) was subcultured in a DMEM medium containing 10% fetal bovine serum treated with charcol/dextran, which was a phenol red-free medium to remove the effect by estrogen of phenol red.
CV-1 cells were distributed in a 24-well plate type incubator at a concentration of 5×10^4. After 24 hours cultivation, the 3 different plasmids were transient transfected. After 24 hours cultivation, the plate was washed with 1×PBS (Phosphate Buffered Saline) and treated with ligand candidates at various concentrations. After 24 hours cultivation, the plate was washed with 1×PBS and the cells were lyzed with 1×PLB (Passive Lysis Buffer) and measured for luciferase activity using Dual-Luciferase® Reporter Assay System kit.

For `Cc1cccc(Nc2cc(Cl)nc(SCC(=O)O)n2)c1C` [Wy14643, Wy-14,643, reference compound], the PPAR-α activity was 1.5.

Same assay, conditions: 1 μM, 24 hours; negative control and non-treated group = 1.0

`Cc1cccc(Nc2cc(Cl)nc(SCC(=O)O)n2)c1C` [Wy14643, Wy-14,643, reference compound] was tested, and the PPAR-α activity was 2.6.

Same assay, conditions: 10 μM, 24 hours; negative control and non-treated group = 1.0

`O=C(O)[C@]1(O)C[C@@H](O)[C@@H](O)[C@H](O)C1` [Quinic acid] and `O=C(O)c1cc(O)c(O)c(O)c1` [Gallic acid] are the same in PPAR-α activity: 1.3 for the first, 1.3 for the second.

First: Oc1cc(O)c2c(c1)OC(c1ccc(O)c(O)c1)C(O)C2 (single isomer, unassigned; (-)) [(−) C, (−)catechin]
Second: Oc1cc(O)c2c(c1)O[C@H](c1ccc(O)c(O)c1)[C@@H](O)C2 [(+) C, (+)catechin]
The PPAR-α activity of the first is lower: 1.4 for the first, 1.5 for the second.

With `Cc1cccc(Nc2cc(Cl)nc(SCC(=O)O)n2)c1C` [Wy14643, Wy-14,643, reference compound] the PPAR-α activity was 3.8.

Same assay, conditions: 100 μM, 24 hours; negative control and non-treated group = 1.0

`O=C(O)[C@]1(O)C[C@@H](O)[C@@H](O)[C@H](O)C1` [Quinic acid] and `O=C(O)c1cc(O)c(O)c(O)c1` [Gallic acid] are the same in PPAR-α activity: 1.7 for the first, 1.7 for the second.

First: Oc1cc(O)c2c(c1)OC(c1ccc(O)c(O)c1)C(O)C2 (single isomer, unassigned; (-)) [(−) C, (−)catechin]
Second: Oc1cc(O)c2c(c1)O[C@H](c1ccc(O)c(O)c1)[C@@H](O)C2 [(+) C, (+)catechin]
The PPAR-α activity of the first is lower: 1.2 for the first, 1.4 for the second.

System: Tumor Necrosis Factor alpha (TNF-α)
Assay: Inhibition of TNF-α biosynthesis after UV irradiation (ELISA)
Assay type: cell-based
Details: human keratinocytes, UV-B 30 mJ/cm^2, 10 μM (10 ppm of extract), 6 to 24 hours; UV control = 100
Protocol: Human keratinocytes were cultured in a 12-well plate type incubator at a concentration of 10^4. The plate was irradiated by UV-B at 30 mJ/cm^2. The media were exchanged with new medium containing 10 μM of each test substance (10 ppm of extract). After 6 to 24 hours of cultivation, the cells were harvested and subjected to ELISA (Pharmingen 555212) to determine the amount of produced tumor necrosis factor α (TNF-α). As the positive control, Wy-14,643 was used.

Going from `O=C(O)[C@]1(O)C[C@@H](O)[C@@H](O)[C@H](O)C1` [Quinic acid] to `O=C(O)c1cc(O)c(O)c(O)c1` [Gallic acid], the “TNF-α biosynthesis (%)” value rises from 35% to 36%.

First: Oc1cc(O)c2c(c1)O[C@H](c1ccc(O)c(O)c1)[C@@H](O)C2 [(+) C, (+)catechin]
Second: Cc1cccc(Nc2cc(Cl)nc(SCC(=O)O)n2)c1C [Wy14643, Wy-14,643, reference compound]
The “TNF-α biosynthesis (%)” value of the first is higher: 40% for the first, 30% for the second.

System: Type I Collagenase (MMP-1)
Assay: Inhibition of type I collagenase (MMP-1) biosynthesis after UV-A irradiation, test substances (ELISA)
Assay type: cell-based
Details: new born human fibroblasts, UV-A 15 J/cm^2, 10 μM or 10 ppm, plus TNF-α 10 ng/ml; UV negative control = 100
Protocol: To describe the experiment method in detail, human fibroblasts isolated from the skin of a new born baby were cultured in a 48-well plate type incubator at a concentration of 10^4. After 24 hours, the plate was irradiated by UV-A at 15 J/cm^2. […] At the second day of cultivation, the supernatants were harvested and subjected to ELISA (AP biotech RPN2610) to determine the amount of produced type I collagenase. As the positive control, Wy-14,643 and retinoic acid (RA) were used.

Compared with `O=C(O)[C@]1(O)C[C@@H](O)[C@@H](O)[C@H](O)C1` [Quinic acid], `O=C(O)c1cc(O)c(O)c(O)c1` [Gallic acid] is lower in “Type I collagenase biosynthesis (%), UV-A + TNF-α treated group” value: 98% for the first, 89% for the second.

Going from `Oc1cc(O)c2c(c1)O[C@H](c1ccc(O)c(O)c1)[C@@H](O)C2` [(+) C, (+)catechin] to `Cc1cccc(Nc2cc(Cl)nc(SCC(=O)O)n2)c1C` [Wy14643, Wy-14,643, reference compound], the “Type I collagenase biosynthesis (%), UV-A + TNF-α treated group” value rises from 86% to 92%.

Same assay, conditions: new born human fibroblasts, UV-A 15 J/cm^2, 10 μM or 10 ppm; UV negative control = 100

First: O=C(O)[C@]1(O)C[C@@H](O)[C@@H](O)[C@H](O)C1 [Quinic acid]
Second: O=C(O)c1cc(O)c(O)c(O)c1 [Gallic acid]
The “Type I collagenase biosynthesis (%), UV-A irradiated group” value of the first is higher: 75% for the first, 52% for the second.

First: Oc1cc(O)c2c(c1)O[C@H](c1ccc(O)c(O)c1)[C@@H](O)C2 [(+) C, (+)catechin]
Second: Cc1cccc(Nc2cc(Cl)nc(SCC(=O)O)n2)c1C [Wy14643, Wy-14,643, reference compound]
The “Type I collagenase biosynthesis (%), UV-A irradiated group” value of the first is lower: 45% for the first, 60% for the second.
